Converted amounts (≈) assume the structure as drawn. The source made the active and inactive calls. The calls are words filed in the database; no cut-off is given here.
Key:
Micrococcus luteus = test: Antibacterial against Micrococcus luteus ATCC 9341 after 24 hrs by NCCLS M7-A6 method; assay type: functional
Bacillus subtilis [1] = test: Antibacterial against Bacillus subtilis ATCC 6633 after 24 hrs by NCCLS M7-A6 method; assay type: functional
Bacillus cereus [2] = test: Antibacterial against Bacillus cereus ATCC 11778 after 24 hrs by NCCLS M7-A6 method; assay type: functional
Staphylococcus aureus [3] = test: Antibacterial against Staphylococcus aureus ATCC 6538 after 24 hrs by NCCLS M7-A6 method; assay type: functional; conditions: ATCC 6538, 24 h
Staphylococcus aureus [4] = test: Antibacterial against Staphylococcus aureus ATCC 6538P after 24 hrs by NCCLS M7-A6 method; assay type: functional
Escherichia coli [5] = test: Antibacterial against Escherichia coli ATCC 10536 after 24 hrs by NCCLS M7-A6 method; assay type: functional; conditions: ATCC 10536, 24 h
Escherichia coli [6] = test: Antibacterial against Escherichia coli ATCC 8739 at 20 mg/mL after 24 hrs by NCCLS M7-A6 method; assay type: functional, organism-based
Staphylococcus aureus [7] = test: Antibacterial against Staphylococcus aureus ATCC 6538 at 20 mg/mL after 24 hrs by NCCLS M7-A6 method; assay type: functional, organism-based
Staphylococcus aureus [8] = test: Antibacterial against Staphylococcus aureus ATCC 6538P at 20 mg/mL after 24 hrs by NCCLS M7-A6 method; assay type: functional, organism-based
Escherichia coli [9] = test: Antibacterial against Escherichia coli ATCC 10536 at 20 mg/mL after 24 hrs by NCCLS M7-A6 method; assay type: functional, organism-based
Bacillus subtilis [10] = test: Antibacterial against Bacillus subtilis ATCC 6633 at 20 mg/mL after 24 hrs by NCCLS M7-A6 method; assay type: functional, organism-based
Bacillus cereus [11] = test: Antibacterial against Bacillus cereus ATCC 11778 at 20 mg/mL after 24 hrs by NCCLS M7-A6 method; assay type: functional, organism-based
[12] = Micrococcus luteus, ATCC 9341, 24 h, read-out: MIC
[13] = Bacillus subtilis, ATCC 6633, 24 h, read-out: MIC
[14] = Bacillus cereus, ATCC 11778, 24 h, read-out: MIC

Row | Compound | MIC (Micrococcus luteus) | MIC (Bacillus subtilis [1]) | MIC (Bacillus cereus [2]) | MIC (Micrococcus luteus; [12]) | MIC (Bacillus subtilis [1]; [13]) | MIC (Bacillus cereus [2]; [14]) | MIC (Staphylococcus aureus [3]) | MIC (Staphylococcus aureus [4]) | MIC (Escherichia coli [5]) | Activity (Escherichia coli [6]) | Activity (Staphylococcus aureus [7]) | Activity (Staphylococcus aureus [8]) | Activity (Escherichia coli [9]) | Activity (Bacillus subtilis [10]) | Activity (Bacillus cereus [11])
1 | CCN(CC)CCOc1ccc2c(C)cc(=O)oc2c1C(C)=O [listing 1 of 2 here] |  |  |  | 2 mM (≈ 635 µg/mL) | 3.9 mM (≈ 1240 µg/mL) | 3.9 mM (≈ 1240 µg/mL) | 3.9 mM (≈ 1240 µg/mL) | 3.9 mM (≈ 1240 µg/mL) |  |  |  |  |  |  | 
2 | O=c1ccc2ccc(OCCN3CCOCC3)cc2o1 |  |  |  | 18.2 mM (≈ 5010 µg/mL) | 72.6 mM (≈ 20000 µg/mL) | 72.6 mM (≈ 20000 µg/mL) | 72.6 mM (≈ 20000 µg/mL) | 36.3 mM (≈ 9990 µg/mL) | 36.3 mM (≈ 9990 µg/mL) |  |  |  |  |  | 
3 | CCN(CC)CCOc1ccc2c(C)cc(=O)oc2c1 |  |  |  | 2 mM (≈ 551 µg/mL) | 2 mM (≈ 551 µg/mL) | 2 mM (≈ 551 µg/mL) | 32.1 mM (≈ 8840 µg/mL) | 32.1 mM (≈ 8840 µg/mL) | 8 mM (≈ 2200 µg/mL) |  |  |  |  |  | 
4 | Cc1cc(=O)oc2cc(OCCN3CCCCC3C)ccc12 (configuration not stated) |  |  |  | 14.4 mM (≈ 4340 µg/mL) | 14.4 mM (≈ 4340 µg/mL) | 28.8 mM (≈ 8680 µg/mL) | 43.2 mM (≈ 13000 µg/mL) | 28.8 mM (≈ 8680 µg/mL) | 14.4 mM (≈ 4340 µg/mL) |  |  |  |  |  | 
5 | CCN(CC)CCOc1ccc2ccc(=O)oc2c1 |  |  |  | 8.4 mM (≈ 2200 µg/mL) | 8.4 mM (≈ 2200 µg/mL) | 8.4 mM (≈ 2200 µg/mL) |  | 67.2 mM (≈ 17600 µg/mL) | 16.8 mM (≈ 4390 µg/mL) |  | inactive |  |  |  | 
6 | CC(=O)c1cc2c(C)cc(=O)oc2cc1OCCN(C)Cc1ccccc1 |  |  |  | 1.5 mM (≈ 548 µg/mL) | 24.3 mM (≈ 8880 µg/mL) | 24.3 mM (≈ 8880 µg/mL) | 24.3 mM (≈ 8880 µg/mL) | 24.3 mM (≈ 8880 µg/mL) | 24.3 mM (≈ 8880 µg/mL) |  |  |  |  |  | 
7 | CC(=O)c1c(O)ccc2c(C)cc(=O)oc12 |  |  |  | 68.7 mM (≈ 15000 µg/mL) | 45.8 mM (≈ 9990 µg/mL) | 22.9 mM (≈ 5000 µg/mL) | 68.7 mM (≈ 15000 µg/mL) |  |  | inactive |  | inactive | inactive |  | 
8 | C[N+](C)(CCOc1ccc2ccc(=O)oc2c1)Cc1ccccc1 |  |  |  | 1.4 mM | 21.9 mM | 21.2 mM | 21.2 mM | 21.2 mM | 21.2 mM |  |  |  |  |  | 
9 | Cc1cc(=O)oc2cc(OCCN3CCOCC3)ccc12 |  |  |  | 8.6 mM (≈ 2490 µg/mL) | 69.1 mM (≈ 20000 µg/mL) | 69.1 mM (≈ 20000 µg/mL) |  | 69.1 mM (≈ 20000 µg/mL) | 51.8 mM (≈ 15000 µg/mL) |  | inactive |  |  |  | 
10 | CC(C)N(CCOc1ccc2ccc(=O)oc2c1)C(C)C |  |  |  | 46 mM (≈ 13300 µg/mL) | 46 mM (≈ 13300 µg/mL) | 30.7 mM (≈ 8880 µg/mL) |  | 61.4 mM (≈ 17800 µg/mL) | 46 mM (≈ 13300 µg/mL) |  | inactive |  |  |  | 
11 | CCN(CC)CCOc1ccc2c(C)cc(=O)oc2c1C(C)=O [listing 2 of 2 here] |  |  |  |  |  |  |  |  |  | inactive | inactive | inactive | inactive | inactive | inactive
12 | CCN(CC)CCOc1cc2oc(=O)cc(C)c2cc1C(C)=O [listing 2 of 2 here] |  |  |  |  |  |  |  |  |  | inactive | inactive | inactive | inactive |  | 
13 | CC1CCCCN1CCOc1ccc2ccc(=O)oc2c1 (configuration not stated) |  |  |  | 15.4 mM (≈ 4430 µg/mL) | 30.9 mM (≈ 8880 µg/mL) | 30.9 mM (≈ 8880 µg/mL) | 46.3 mM (≈ 13300 µg/mL) | 61.8 mM (≈ 17800 µg/mL) | 30.9 mM (≈ 8880 µg/mL) |  |  |  |  |  | 
14 | Cc1cc(=O)oc2cc(OCCN(C)Cc3ccccc3)ccc12 |  |  |  | 40.7 mM (≈ 13200 µg/mL) |  |  |  |  |  | inactive | inactive | inactive | inactive | inactive | inactive
15 | CC(=O)c1cc2c(C)cc(=O)oc2cc1O |  |  |  | 45.8 mM (≈ 9990 µg/mL) | 22.9 mM (≈ 5000 µg/mL) | 4.6 mM (≈ 1000 µg/mL) | 45.8 mM (≈ 9990 µg/mL) |  |  | inactive |  | inactive | inactive |  | 
16 | CC(=O)c1cc2c(C)cc(=O)oc2cc1OCCN(C(C)C)C(C)C |  |  |  | 37.5 mM (≈ 13000 µg/mL) | 12.5 mM (≈ 4320 µg/mL) | 12.5 mM (≈ 4320 µg/mL) |  |  |  | inactive | inactive | inactive | inactive |  | 

Now from value to compound, other results behind:

Row | MIC (Micrococcus luteus) | MIC (Bacillus subtilis [1]) | MIC (Bacillus cereus [2]) | MIC (Micrococcus luteus; [12]) | MIC (Bacillus subtilis [1]; [13]) | MIC (Bacillus cereus [2]; [14]) | MIC (Staphylococcus aureus [3]) | MIC (Staphylococcus aureus [4]) | MIC (Escherichia coli [5]) | Compound | Activity (Escherichia coli [6]) | Activity (Staphylococcus aureus [7]) | Activity (Staphylococcus aureus [8]) | Activity (Escherichia coli [9]) | Activity (Bacillus subtilis [10]) | Activity (Bacillus cereus [11])
17 | 31.5 mM (≈ 10000 µg/mL) | 31.5 mM (≈ 10000 µg/mL) | 63 mM (≈ 20000 µg/mL) |  |  |  |  |  |  | CCN(CC)CCOc1cc2oc(=O)cc(C)c2cc1C(C)=O [listing 1 of 2 here] |  |  |  |  |  | 
18 |  |  |  | 6.5 mM (≈ 2140 µg/mL) | 39.1 mM (≈ 12900 µg/mL) | 26.1 mM (≈ 8600 µg/mL) | 39.1 mM (≈ 12900 µg/mL) | 39.1 mM (≈ 12900 µg/mL) | 13 mM (≈ 4280 µg/mL) | CC(=O)c1c(OCCN2CCCCC2)ccc2c(C)cc(=O)oc12 |  |  |  |  |  | 
19 |  |  |  | 6.6 mM (≈ 2270 µg/mL) | 1.6 mM (≈ 549 µg/mL) | 1.6 mM (≈ 549 µg/mL) | 26.3 mM (≈ 9030 µg/mL) | 26.3 mM (≈ 9030 µg/mL) | 26.3 mM (≈ 9030 µg/mL) | CC(=O)c1cc2c(C)cc(=O)oc2cc1OCCN1CCCCC1C (configuration not stated) | inactive |  |  |  |  | 
20 |  |  |  | 1.7 mM (≈ 560 µg/mL) | 1.7 mM (≈ 560 µg/mL) | 1.7 mM (≈ 560 µg/mL) | 13.3 mM (≈ 4380 µg/mL) | 6.7 mM (≈ 2210 µg/mL) | 13.3 mM (≈ 4380 µg/mL) | CC(=O)c1cc2c(C)cc(=O)oc2cc1OCCN1CCCCC1 |  |  |  |  |  | 
21 | 1.8 mM | 0.4 mM | 0.4 mM |  |  |  | 7.1 mM | 7.1 mM | 7.1 mM | CCN(CC)CCOc1cc2oc(=O)cc(C)c2cc1C(C)=O.Cl |  |  |  |  |  | 
22 |  |  |  | 6 mM (≈ 2190 µg/mL) | 2.4 mM (≈ 877 µg/mL) | 2.4 mM (≈ 877 µg/mL) | 35.7 mM (≈ 13000 µg/mL) | 23.8 mM (≈ 8700 µg/mL) | 35.7 mM (≈ 13000 µg/mL) | CC(=O)c1c(OCCN(C)Cc2ccccc2)ccc2c(C)cc(=O)oc12 | inactive |  |  |  |  | 
23 | 3.5 mM |  |  |  |  |  |  |  |  | CCN(CC)CCOc1ccc2c(C)cc(=O)oc2c1C(C)=O.Cl |  |  |  |  |  | 
24 |  |  |  | 22.6 mM | 22.6 mM | 45.1 mM |  |  |  | Cc1cc(=O)oc2cc(OCC[N+]3(C)CCCCC3C)ccc12 (configuration not stated) | inactive | inactive | inactive | inactive |  | 
25 |  |  |  | 30.2 mM (≈ 10000 µg/mL) |  |  |  |  |  | CC(=O)c1c(OCCN2CCOCC2)ccc2c(C)cc(=O)oc12 | inactive | inactive | inactive | inactive | inactive | inactive
